Laboratory results taken from patent US9624269B2, “Peptide inhibitors of BACE1” (GENENTECH, INC., priority 2011, dated 2017).
Positions of bridges follow the written chain, without caps; N, C: chain ends. Residues, ends and D or L forms follow the SMILES beside them.

Experiments:
human BACE1 (rhBACE1) [1] = biological target: T1, human BACE1 (rhBACE1) (Homo sapiens, UniProt P56817); test: BACE1 fluorescence polarization (FP) competition binding assay with 5-TAMRA-BACE020 probe; settings: competition with 3 nM 5-TAMRA-BACE020, 12 nM rhBACE1, pH 4.4
Procedure: BACE1 Fluorescence Polarization Competition Binding Assay.
BACE1 binding assays were carried out in a final volume of 10 μL per well in black 384-well microplates (Proxiplate-Plus; Perkin Elmer, Waltham, Mass.). A standard binding reaction, initiated by the addition of 5 μL 2× enzyme to 2.5 μL of 4× binding probe and […] of 4× inhibitor, contained 12 nM rhBACE1, 3 nM 5-TAMRA-[…] (SEQ ID NO: 16) (5-TAMRA-BACE020), 50 mM NaOAc, pH 4.4 with 0.1% CHAPS. The reaction was permitted to proceed towards equilibrium for 2 h at ambient temperature prior to fluorescence polarization measurement using Envision (Perkin Elmer). The parallel and perpendicular fluorescent emissions measured in each well at 595 nm (excitation 531 nm polarized light) were used to determine the milli-polarization level (mP) using the following formula: mP=1000*(S-G*P)/(S+G*P) where S=parallel emission, P=perpendicular emission and G=0.65. The mP value in each well was plotted as a function of inhibitor concentration and the 50% inhibition (IC50) values were determined using a nonlinear least squares fit of the data to a four parameter equation using Prism 5.0 software (GraphPad Software, San Diego, Calif.). 5-TAMRA-labeled BACE020 was purchased from American Peptide Company, Inc (Sunnyvale, Calif.) and solubilized in DMSO to 100 mM for storage.
The affinities of BACE1 peptide ligands were measured using the abovementioned competition binding FP assay for determining IC50 values with serially diluted peptides. A Caliper assay was used to measure the inhibition of BACE1 enzymatic activity by peptide ligands. […] Furthermore, the IC50 values measured by the Caliper assay for peptides BACE017-021 and BACE025-028 are consistent with those measured by the HTRF assay.
Target sequence in this assay (P56817 46-501): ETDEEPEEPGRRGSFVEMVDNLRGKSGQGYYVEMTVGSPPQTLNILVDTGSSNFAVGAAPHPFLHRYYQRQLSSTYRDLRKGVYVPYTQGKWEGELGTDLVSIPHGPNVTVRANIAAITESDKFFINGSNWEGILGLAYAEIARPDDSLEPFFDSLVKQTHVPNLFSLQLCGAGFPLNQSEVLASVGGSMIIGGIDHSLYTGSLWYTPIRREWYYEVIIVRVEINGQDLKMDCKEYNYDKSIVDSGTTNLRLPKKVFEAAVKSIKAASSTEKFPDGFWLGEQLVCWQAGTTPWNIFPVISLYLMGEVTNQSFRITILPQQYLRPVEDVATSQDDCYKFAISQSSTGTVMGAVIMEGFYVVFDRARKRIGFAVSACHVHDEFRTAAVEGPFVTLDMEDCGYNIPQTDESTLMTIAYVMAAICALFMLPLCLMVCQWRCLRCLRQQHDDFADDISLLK

BACE1 = BACE1 (Homo sapiens, UniProt P56817); test: Biotinylated BACE020 competition binding ELISA; design: extracellular domain (ECD) (residues 22-457) and a C-terminal His8 tag; made in house; host or cells: Chinese hamster ovary cells (transient); settings: concentration dependent addition of competitor
Procedure: The coated wells were washed with buffer (PBS, 0.05% Polysorbate 20) and blocked with assay buffer (PBS, pH 7.4, 0.5% BSA, 0.05% Tween 20, 15 ppm Proclin) for 1 h at room temperature with gentle shaking.

[2] = system: Aβ1-40 production in 293-hAPP cells; test: Aβ1-40 assay in 293-hAPP cells; type: cell-based, human; settings: 293-HEK cells stably transfected with APP, 24 h
Procedure: Aβ1-40 Assay in 293-hAPP Cells.
Aβ1-40 production was measured in 293-HEK cells stably expressing wild-type human APP(695) complementary DNA (cDNA) (293-hAPP). Cells were seeded overnight at 3×10^4 cells per well in a 96-well plate. Fresh media [Dulbecco's modified Eagle's medium (DMEM)+10% fetal bovine serum (FBS)] containing various inhibitors were incubated with the 293-hAPP cells for 24 h. The cellular medium was harvested and assayed for the presence of Aβ1-40 with an Aβ1-40 HTRF assay (CisBio) according to the manufacturer's instructions. Aβ1-40 values were normalized for cell viability, as determined with the CellTiter-Glo Luminescent Cell Viability Assay (Promega). Experiments were performed at least 3 times, and each point in each experiment was repeated in duplicate. Data was plotted with a 4-parameter nonlinear regression curve-fitting program (KaleidaGraph, Synergy Software).

rhBACE2 = rhBACE2 (Homo sapiens, UniProt Q9Y5Z0); test: BACE2 activity assay (microfluidic capillary electrophoresis); type: biochemical; settings: 5 nM rhBACE2
Procedure: (§1) BACE1, BACE2 and Cathepsin D Activity Assay Using Microfluidic Capillary Electrophoresis (MCE).
(§2) BACE1, BACE2, and Cathepsin D reactions were carried out in a final volume of 20 μl per well in a 384-well microplate using a Caliper LabChip 3000 (Hopkinton, Mass.). A standard enzymatic reaction, initiated by the addition of 10 μ12× substrate to 5 μl of 4× enzyme and 5 μl of 4× peptide or small molecule inhibitor, contained 12 nM rhBACE1, 1 μM FAM-[…]-amide (SEQ ID NO: 20), 50 mM NaOAc, pH 4.4, 0.1% CHAPS. The same reaction conditions were used for rhBACE2 (5 nM) and Cathepsin D (6 nM) (Cat. No. 219394; EMD Biosciences, San Diego, Calif.). After incubation for 60 min at room temperature, the product and substrate in each reaction were separated using a 12-sipper microfluidic chip. Separation of product and substrate was optimized by choosing voltages and pressure using the Caliper Optimizer software. The separation buffer contained 100 mM HEPES, pH 7.2, 0.015% Brij-35, 0.1% Coating Reagent #3, 10 mM EDTA and 5% DMSO. The separation conditions used a downstream voltage of −500 V, an upstream voltage of −2250 V, and a screening pressure of −1.2 psi. The product and substrate fluorescence was excited at 488 nm and detected at 530 nm. Substrate conversion was calculated from the electrophoregram using the Caliper HTS Well Analyzer software.

Cathepsin D = biological target: T2, Cathepsin D (Homo sapiens, UniProt P07339); test: Cathepsin D activity assay (microfluidic capillary electrophoresis); type: biochemical; settings: 6 nM Cathepsin D
T2 construct: purchased EMD Biosciences, San Diego, Calif; 219394
Procedure: as §1, §2

human BACE1 (rhBACE1) [3] = biological target: T1, human BACE1 (rhBACE1); test: Caliper BACE1 activity assay (microfluidic capillary electrophoresis); type: biochemical; design: containing human BACE1 (extracellular domain)
Summary of the method: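 12 nM rhBACE1 (extracellular domain) cleaved 1 μM FAM-labelled APP β-secretase site peptide in 50 mM NaOAc pH 4.4, 0.1% CHAPS, for 60 min at room temperature. Product and substrate were separated by microfluidic capillary electrophoresis with fluorescence at 488/530 nm, and substrate conversion was taken from the electrophoregram.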
Target sequence in this assay (P56817 46-457 limits assumed): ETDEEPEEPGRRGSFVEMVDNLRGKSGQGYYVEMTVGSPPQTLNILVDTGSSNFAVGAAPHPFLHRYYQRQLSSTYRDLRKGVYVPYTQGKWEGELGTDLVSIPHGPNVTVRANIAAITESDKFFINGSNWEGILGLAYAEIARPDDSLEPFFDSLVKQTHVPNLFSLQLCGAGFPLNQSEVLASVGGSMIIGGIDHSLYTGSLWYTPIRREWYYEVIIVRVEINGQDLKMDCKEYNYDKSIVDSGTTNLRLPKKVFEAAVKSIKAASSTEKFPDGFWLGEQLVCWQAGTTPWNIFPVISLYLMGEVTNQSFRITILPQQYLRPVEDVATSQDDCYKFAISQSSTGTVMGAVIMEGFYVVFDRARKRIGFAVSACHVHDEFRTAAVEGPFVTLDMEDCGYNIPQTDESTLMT

T2 sequence (P07339 65-412, species assumed): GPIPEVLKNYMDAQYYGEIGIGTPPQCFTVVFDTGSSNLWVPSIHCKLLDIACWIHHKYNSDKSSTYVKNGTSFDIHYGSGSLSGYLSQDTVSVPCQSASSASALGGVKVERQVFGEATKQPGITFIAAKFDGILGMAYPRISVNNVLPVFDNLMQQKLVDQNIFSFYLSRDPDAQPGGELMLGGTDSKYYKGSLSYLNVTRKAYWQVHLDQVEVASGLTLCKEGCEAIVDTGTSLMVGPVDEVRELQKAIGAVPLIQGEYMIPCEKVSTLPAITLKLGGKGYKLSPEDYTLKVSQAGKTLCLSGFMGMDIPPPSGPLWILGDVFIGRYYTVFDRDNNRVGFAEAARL
BACE1, sequence (P56817 22-457): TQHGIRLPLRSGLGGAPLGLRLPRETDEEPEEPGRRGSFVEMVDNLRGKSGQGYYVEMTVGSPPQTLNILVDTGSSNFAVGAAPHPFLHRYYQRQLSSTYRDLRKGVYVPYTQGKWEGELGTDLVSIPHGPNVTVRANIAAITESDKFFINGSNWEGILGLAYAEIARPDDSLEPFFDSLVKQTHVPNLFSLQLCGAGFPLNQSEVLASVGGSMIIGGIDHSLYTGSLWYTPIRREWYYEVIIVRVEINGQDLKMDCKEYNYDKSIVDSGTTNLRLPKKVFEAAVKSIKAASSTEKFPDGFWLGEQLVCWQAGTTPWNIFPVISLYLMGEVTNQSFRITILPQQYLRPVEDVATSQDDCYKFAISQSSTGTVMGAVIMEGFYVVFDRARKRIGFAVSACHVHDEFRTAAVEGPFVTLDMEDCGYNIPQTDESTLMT
rhBACE2, sequence (Q9Y5Z0 63-518): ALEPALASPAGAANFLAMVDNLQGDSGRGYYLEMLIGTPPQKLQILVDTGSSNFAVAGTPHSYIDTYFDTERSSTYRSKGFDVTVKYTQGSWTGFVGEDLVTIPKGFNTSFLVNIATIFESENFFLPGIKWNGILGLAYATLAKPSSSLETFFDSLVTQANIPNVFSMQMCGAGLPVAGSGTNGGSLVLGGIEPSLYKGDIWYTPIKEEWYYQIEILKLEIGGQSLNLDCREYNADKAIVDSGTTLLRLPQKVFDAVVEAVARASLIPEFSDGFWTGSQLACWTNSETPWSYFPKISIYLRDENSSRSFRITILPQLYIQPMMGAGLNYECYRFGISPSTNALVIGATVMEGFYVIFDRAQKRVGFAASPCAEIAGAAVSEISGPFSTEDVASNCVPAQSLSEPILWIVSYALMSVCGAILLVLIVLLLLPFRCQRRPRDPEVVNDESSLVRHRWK

Row | Compound | IC50 (human BACE1 (rhBACE1) [1]) [nM] | Competition for binding of biotinylated BACE020 to BACE1 (BACE1) | Inhibition of Aβ production in cells (in words) [2] | Inhibition of BACE2 (rhBACE2) | Inhibition of Cathepsin D (Cathepsin D) | IC50 (human BACE1 (rhBACE1) [3]; 12 nM rhBACE1, 1 μM FAM-substrate, pH 4.4) [nM] | peptide activity (in words) (human BACE1 (rhBACE1) [3]; competition binding and enzymatic assays)
1 | Ac-NLTTYPYFIPLP-NH2 [BMS1, reference compound] | > 10000 | no competition | no inhibition | – | – | – | –
2 | CC[C@H](C)[C@@H]1NC(=O)CNC(=O)[C@H](CC(C)C)NC(=O)[C@H](CC(C)C)NC(=O)[C@H](CCCNC(=N)N)NC(=O)[C@@H](NC(=O)[C@H](Cc2ccc(O)cc2)NC(=O)[C@H](CCSC)NC(=O)[C@H](CO)NC(=O)[C@H](CCC(=O)O)NC(C)=O)CSSC[C@@H](C(=O)NCC(N)=O)NC(=O)CNC1=O [BACE030] (Ac-ESMYCRLLGIGCG-NH2; disulfide 5-12) | – | – | potent inhibition | no inhibition | no inhibition | 18 ± 7 | full activity
